Source: ChEMBL document CHEMBL5230096, “A comprehensive insight on the recent development of Cyclic Dependent Kinase inhibitors as anticancer agents” (Eur J Med Chem, 2020)
Values belong to the molecule of their own block, whether it stands above or below them.

Legend:
[1] = target: Cyclin-dependent kinase 9 (Homo sapiens, UniProt P50750); assay: Inhibition of CDK9 (unknown origin) using TMB as substrate by spectrophotometric analysis
MV4-11 = assay: Antiproliferative activity against human MV4-11 cells assessed as cell growth inhibition incubated for 72 hrs by resazurin assay; assay type: functional
[2] = AUC in Wistar rat at 20 mg/kg,po and measured upto 24 hrs by LC/MS/MS analysis; assay type: ADME, organism-based; design: time < 24 hrs, dose 20 mg/kg, route po; conditions: in vivo
[3] = AUC in Balb/c mouse at 10 mg/kg,po and measured upto 24 hrs by LC/MS/MS analysis; assay type: ADME, organism-based; design: time < 24 hrs, dose 10 mg/kg, route po; conditions: in vivo
MDA-MB-453 = assay: Antiproliferative activity against human MDA-MB-453 cells assessed as cell growth inhibition incubated for 72 hrs by MTT assay; assay type: functional
A549 [4] = assay: Antiproliferative activity against human A549 cells assessed as reduction in cell viability incubated for 72 hrs by MTT assay; assay type: functional, cell-based; conditions: A549, 72 h
HCT-116 [5] = assay: Antiproliferative activity against human HCT-116 cells assessed as reduction in cell viability incubated for 72 hrs by MTT assay; assay type: functional, cell-based; conditions: HCT-116, 72 h
HL-60 = assay: Antiproliferative activity against human HL-60 cells assessed as reduction in cell viability incubated for 72 hrs by MTT assay; assay type: functional, cell-based; conditions: HL-60, 72 h
CDK2/Cyclin A2 = CDK2/Cyclin A2 (Homo sapiens, UniProt P24941); assay: Inhibition of CDK2/cyclin A2 (unknown origin) expressed in baculovirus expression system incubated for 1 hr using Ser/Thr12 Peptide as substrate in presence of ATP by Z-LYTE kinase assay
[6] = target: Cyclin-dependent kinase 2 (Homo sapiens, UniProt P24941); assay: Inhibition of CDK2 (unknown origin) incubated for 10 min using histone H1 as substrate in presence of gamma32P-ATP by radioactive assay
[7] = Cytotoxicity against human L02 cells assessed cell growth inhibition incubated for 2 days by MTT assay; assay type: toxicity, cell-based
NCI-H522 = assay: Cytotoxicity against human NCI-H522 cells assessed cell growth inhibition incubated for 2 days by MTT assay; assay type: functional, cell-based; conditions: NCI-H522, 48 h
[8] = Cytotoxicity against human U87 cells assessed cell growth inhibition incubated for 2 days by MTT assay; assay type: functional, cell-based, U-87MG ATCC; conditions: U-87 MG, 48 h
A549 [9] = assay: Antitumor activity against human A549 cells assessed as reduction in cell viability by MTT assay; assay type: functional, cell-based
[10] = target: Cyclin-dependent kinase 4 (Homo sapiens, UniProt P11802); assay: Inhibition of CDK4 (unknown origin) by kinase assay
Cyclin-dependent kinase 4, sequence (P11802 whole entry): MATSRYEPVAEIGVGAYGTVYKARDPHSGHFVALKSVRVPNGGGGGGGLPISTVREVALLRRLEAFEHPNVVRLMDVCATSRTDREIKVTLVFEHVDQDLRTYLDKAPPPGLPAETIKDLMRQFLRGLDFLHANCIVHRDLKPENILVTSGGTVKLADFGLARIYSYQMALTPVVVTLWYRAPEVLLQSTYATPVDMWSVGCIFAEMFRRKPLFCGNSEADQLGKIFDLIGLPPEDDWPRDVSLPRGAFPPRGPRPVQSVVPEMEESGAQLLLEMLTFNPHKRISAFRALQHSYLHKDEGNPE

Bel-7402 = assay: Antitumor activity against human Bel-7402 cells assessed as reduction in cell viability by MTT assay; assay type: functional, cell-based
LS174T = assay: Antitumor activity against human LS174T cells assessed as reduction in cell viability by MTT assay; assay type: functional, cell-based
HeLa [11] = assay: Antitumor activity against human HeLa cells assessed as reduction in cell viability by MTT assay; assay type: functional, cell-based
[12] = Cytotoxicity against human L02 cells assessed as inhibition of cell viability incubated for 72 hrs by MTT assay; assay type: toxicity, cell-based
RPMI-8226 = assay: Cytotoxicity against human RPMI-8226 cells assessed as reduction in cell growth incubated for 72 hrs by Calcein AM assay; assay type: functional, cell-based; conditions: RPMI-8226, 72 h
U-266 = assay: Cytotoxicity against human U-266 cells assessed as reduction in cell growth incubated for 72 hrs by Calcein AM assay; assay type: functional, cell-based; conditions: U-266, 72 h
HCT-116 [13] = assay: Cytotoxicity against human HCT-116 cells assessed as reduction in cell growth incubated for 72 hrs by Calcein AM assay; assay type: functional, cell-based; conditions: HCT-116, 72 h
CCRF-CEM = assay: Cytotoxicity against human CEM cells assessed as reduction in cell growth incubated for 72 hrs by Calcein AM assay; assay type: functional, cell-based
G-361 = assay: Cytotoxicity against human G-361 cells assessed as reduction in cell growth incubated for 72 hrs by Calcein AM assay; assay type: functional, cell-based; conditions: G-361, 72 h
MCF7 = assay: Cytotoxicity against human MCF7 cells assessed as reduction in cell growth incubated for 72 hrs by Calcein AM assay; assay type: functional, cell-based; conditions: MCF7, 72 h
HOS = assay: Cytotoxicity against human HOS cells assessed as reduction in cell growth incubated for 72 hrs by Calcein AM assay; assay type: functional, cell-based
K562 = assay: Cytotoxicity against human K562 cells assessed as reduction in cell growth incubated for 72 hrs by Calcein AM assay; assay type: functional, cell-based; conditions: K562, 72 h
HeLa [14] = assay: Cytotoxicity against human HeLa cells assessed as reduction in cell growth incubated for 72 hrs by Calcein AM assay; assay type: functional, cell-based
HT-29 = assay: Cytotoxicity against human HT-29 cells assessed as reduction in cell growth incubated for 72 hrs by Calcein AM assay; assay type: functional, cell-based; conditions: HT-29, 72 h
MDA-MB-468 = assay: Cytotoxicity against human MDA-MB-468 cells assessed as reduction in cell growth incubated for 72 hrs by Calcein AM assay; assay type: functional, cell-based; conditions: MDA-MB-468, 72 h
[15] = target: Protein cereblon/Cyclin-dependent kinase 4 (Homo sapiens, UniProt P11802+Q96SW2); assay: Protac activity at CRBN/CDK4 in human MDA-MB-231 cells assessed as CDK4 degradation incubated for 18 hrs by Western blot analysis; assay type: cell-based
Protein cereblon/Cyclin-dependent kinase 4, sequence (P11802 whole entry): as above
Protein cereblon/Cyclin-dependent kinase 4, sequence (Q96SW2 whole entry): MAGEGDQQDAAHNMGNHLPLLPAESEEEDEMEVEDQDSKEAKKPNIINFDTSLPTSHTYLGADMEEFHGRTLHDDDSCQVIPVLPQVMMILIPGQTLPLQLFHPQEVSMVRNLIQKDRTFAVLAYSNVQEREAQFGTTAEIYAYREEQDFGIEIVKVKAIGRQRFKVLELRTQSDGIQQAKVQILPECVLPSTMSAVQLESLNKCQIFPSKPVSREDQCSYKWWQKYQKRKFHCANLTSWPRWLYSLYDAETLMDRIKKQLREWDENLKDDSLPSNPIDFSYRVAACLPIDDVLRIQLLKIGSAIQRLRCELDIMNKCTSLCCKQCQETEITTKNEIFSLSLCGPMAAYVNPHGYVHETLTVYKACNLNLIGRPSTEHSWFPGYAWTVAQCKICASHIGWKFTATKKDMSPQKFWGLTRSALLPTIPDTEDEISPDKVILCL

[16] = target: Protein cereblon/Cyclin-dependent kinase 6 (Homo sapiens, UniProt Q00534+Q96SW2); assay: Protac activity at CRBN/CDK6 in human MDA-MB-231 cells assessed as CDK6 degradation incubated for 18 hrs by Western blot analysis; assay type: cell-based
Protein cereblon/Cyclin-dependent kinase 6, sequence (Q00534 whole entry): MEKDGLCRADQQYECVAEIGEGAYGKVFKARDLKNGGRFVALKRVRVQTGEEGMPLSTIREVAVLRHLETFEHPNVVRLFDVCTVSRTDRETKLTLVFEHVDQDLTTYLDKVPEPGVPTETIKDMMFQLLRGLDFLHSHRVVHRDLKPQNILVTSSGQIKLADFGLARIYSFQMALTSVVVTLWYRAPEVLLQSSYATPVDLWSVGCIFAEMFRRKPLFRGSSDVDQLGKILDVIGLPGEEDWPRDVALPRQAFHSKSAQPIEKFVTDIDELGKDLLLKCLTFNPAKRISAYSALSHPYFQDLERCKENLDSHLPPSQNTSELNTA
Protein cereblon/Cyclin-dependent kinase 6, sequence (Q96SW2 whole entry): as the sequence (Q96SW2 whole entry) above

Cyclin-dependent kinase 9, sequence (P50750 whole entry): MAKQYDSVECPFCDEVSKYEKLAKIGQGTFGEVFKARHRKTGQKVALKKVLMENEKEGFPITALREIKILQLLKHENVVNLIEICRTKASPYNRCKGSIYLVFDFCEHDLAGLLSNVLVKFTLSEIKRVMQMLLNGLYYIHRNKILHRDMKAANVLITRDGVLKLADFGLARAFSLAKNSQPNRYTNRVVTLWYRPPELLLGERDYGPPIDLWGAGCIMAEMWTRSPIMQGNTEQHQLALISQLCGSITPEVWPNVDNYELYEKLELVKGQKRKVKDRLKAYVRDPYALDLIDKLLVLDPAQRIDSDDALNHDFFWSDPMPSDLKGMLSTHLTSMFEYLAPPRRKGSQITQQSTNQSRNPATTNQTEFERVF

IC50 [1]: 0.5 µM
Compound: O=C1N=NC(=O)/C(=C\Nc2ccc(-c3nc4ncccc4[nH]3)cc2)C(=O)N1

GI50 (MV4-11): 0.107 µM
AUC at 24 h [2]: 4.4 µM·h
AUC at 24 h [3]: 4.3 µM·h
GI50 (MDA-MB-453): 0.325 µM
Compound: CNc1nc(C)c(-c2nc(Nc3ccc(N4CCC(N(C)C)CC4)cn3)ncc2F)s1

IC50 (A549 [4]): 3.85 µM
IC50 (HCT-116 [5]): 1.56 µM
IC50 (HL-60): 3.71 µM
IC50 (CDK2/Cyclin A2): 0.021 µM
Compound: CCC(CO)Nc1nc(NCc2ccccn2)c2ncn(CC)c2c1[N+](=O)[O-] (configuration not stated)

IC50 [6]: 1.8 µM
Compound: Nc1c([N+](=O)[O-])cnc(NC2CCCCC2)c1[N+](=O)[O-]
IC50 at 2 days [7]: 86.7 µM
IC50 (NCI-H522): 2.89 µM
IC50 [8]: 3.19 µM

IC50 (A549 [9]): 16 µM
IC50 [10]: 10 µM
IC50 (Bel-7402): 14 µM
IC50 (HeLa [11]): 25 µM
Compound: CN(Cc1ccccc1)C(=O)CCc1c[nH]c2ccccc12
IC50 (LS174T): 11 µM

Compound: O=C1CCC(N2C(=O)c3cccc(NC(=O)CCCCCCCn4cc(COc5c(O)cc(O)c6c(=O)cc(-c7ccccc7)oc56)nn4)c3C2=O)C(=O)N1 (configuration not stated)
IC50 at 72 hrs [12]: > 100 µM

Compound: CC[C@H](CO)Nc1nc(NCc2ccccc2N)c2[nH]nc(C(C)C)c2n1
IC50 (RPMI-8226): 5 µM
IC50 (U-266): 5 µM
IC50 (HCT-116 [13]): 5 µM
IC50 (CCRF-CEM): 5 µM
IC50 (G-361): 5 µM
IC50 (MCF7): 5 µM
IC50 (HOS): 5 µM
IC50 (K562): 5 µM
IC50 (HeLa [14]): 5 µM
IC50 (HT-29): 5 µM
IC50 (MDA-MB-468): 5 µM

DC50 [15]: 0.02 µM
DC50 [16]: 0.02 µM
Compound: CC(=O)c1c(C)c2cnc(Nc3ccc(N4CCN(Cc5cn(CCCCCC(=O)Nc6cccc7c6C(=O)N(C6CCC(=O)NC6=O)C7=O)nn5)CC4)cn3)nc2n(C2CCCC2)c1=O (configuration not stated)
